The test system of this assay is BDF1 mice, B16 melanoma ip, median survival T/C. Put plainly: NCI In Vivo Anticancer Drug Screen. Data for tumor model B16 Melanoma (intraperitoneal) in B6D2F1 (BDF1) mice. The settings on record: endpoint: median survival time, higher = longer survival. In short, it runs like this:
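Transplantable tumor model; survival or tumor size measured; reported as T/C, treated over vehicle control.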

The mark [1] stands for this setting: dose: 1.5 mg/kg/injection, schedule: Q01DX009 (ip), vehicle: other.
Setting [2] is: dose: 50.0 mg/kg/injection, schedule: Q01DX009 (ip), vehicle: other.
Setting [3] is: dose: 400.0 mg/kg/injection, schedule: Q01DX009 (ip), vehicle: Klucel (hydroxypropylcellulose) (HPC).
Setting [4] is: dose: 50.0 mg/kg/injection, schedule: Q01DX009 (ip), vehicle: Klucel (hydroxypropylcellulose) (HPC).
[5] abbreviates: dose: 50.0 mg/kg/injection, schedule: Q01DX009 (ip), vehicle: saline with Tween-80.
[6] abbreviates: dose: 100.0 mg/kg/injection, schedule: Q01DX009 (ip), vehicle: saline with Tween-80.
Setting [7] is: dose: 200.0 mg/kg/injection, schedule: Q01DX009 (ip), vehicle: saline with Tween-80.
Setting [8] is: dose: 12.5 mg/kg/injection, schedule: Q01DX009 (ip), vehicle: Klucel (hydroxypropylcellulose) (HPC).
Where [9] appears, read: dose: 400.0 mg/kg/injection, schedule: Q01DX009 (ip), vehicle: saline with Tween-80.
Where [10] appears, read: dose: 6.25 mg/kg/injection, schedule: Q01DX009 (ip), vehicle: saline with Tween-80.
[11] abbreviates: dose: 12.5 mg/kg/injection, schedule: Q01DX009 (ip), vehicle: saline with Tween-80.
Setting [12] is: dose: 25.0 mg/kg/injection, schedule: Q01DX009 (ip), vehicle: saline with Tween-80.
Where [13] appears, read: dose: 6.25 mg/kg/injection, schedule: Q01DX009 (ip), vehicle: saline.
Setting [14] is: dose: 12.5 mg/kg/injection, schedule: Q01DX009 (ip), vehicle: saline.

Several values for one entry are separate records, joined by “and”; a condition that tells them apart may be missing. Identical values can stand only once. Toxic doses and inconclusive results are not listed.

Take `Nc1nc(Cl)c2[nH]cnc2n1`: the T/C runs as follows: (dose: 0.09 mg/kg/injection, schedule: Q01DX009 (ip), vehicle: other) 114 % of control; (dose: 0.19 mg/kg/injection, schedule: Q01DX009 (ip), vehicle: other) 113 % of control; (dose: 0.38 mg/kg/injection, schedule: Q01DX009 (ip), vehicle: other) 105 % of control; (dose: 0.75 mg/kg/injection, schedule: Q01DX009 (ip), vehicle: other) 88 % of control and 111 % of control; under setting [1], 110 % of control; (dose: 3.0 mg/kg/injection, schedule: Q01DX009 (ip), vehicle: other) 101 % of control and 108 % of control. The T/C by setting is: (dose: 6.0 mg/kg/injection, schedule: Q01DX009 (ip), vehicle: other) 89 % of control; under setting [2], 93 % of control.
`CC1NC(=O)NC1=O` (configuration not stated): the T/C was 90 % of control (dose: 100.0 mg/kg/injection, schedule: Q01DX009 (ip), vehicle: Klucel (hydroxypropylcellulose) (HPC)); 100 % of control (dose: 200.0 mg/kg/injection, schedule: Q01DX009 (ip), vehicle: Klucel (hydroxypropylcellulose) (HPC)); 102 % of control under setting [3].
As for `CCc1c2cc(OC)c(OC)cc2cc2c3cc(OC)c(OC)cc3cc[n+]12` (tested in a mixture with another compound), the T/C by setting is: (dose: 4.8 mg/kg/injection, schedule: Q01DX009 (ip), vehicle: saline) 98 % of control; (dose: 9.5 mg/kg/injection, schedule: Q01DX009 (ip), vehicle: saline) 98 % of control; (dose: 19.0 mg/kg/injection, schedule: Q01DX009 (ip), vehicle: saline) 99 % of control; (dose: 37.5 mg/kg/injection, schedule: Q01DX009 (ip), vehicle: saline with Tween-80) 117 % of control; (dose: 38.0 mg/kg/injection, schedule: Q01DX009 (ip), vehicle: saline) 95 % of control; (dose: 75.0 mg/kg/injection, schedule: Q01DX009 (ip), vehicle: saline with Tween-80) 108 % of control. Also, the T/C (dose: 150.0 mg/kg/injection, schedule: Q01DX009 (ip), vehicle: saline with Tween-80) was 98 % of control.
On to `Cc1ccc(N=Nc2c(O)ccc3ccccc23)c(C)c1`, for which the T/C was 92 % of control under setting [4] and 150 % of control under setting [3].
`OCCNCc1ccc(Cl)cc1`: the T/C under setting [5] is 104 % of control, the T/C under setting [6] is 109 % of control and the T/C under setting [7] was 103 % of control.
On to `CC1=NN(c2cccc(Cl)c2)C(=O)C1`, for which the T/C reads like this: under setting [5], 108 % of control; under setting [6], 109 % of control; under setting [7], 101 % of control.
Consider `CC(=O)OC1CCC(C(C)(C)C)CC1` (configuration not stated), for which the T/C is 113 % of control under setting [5] and 91 % of control under setting [6].
Consider `N#Cc1ccccc1N=NNc1ccccc1C#N`, for which the T/C (dose: 0.78 mg/kg/injection, schedule: Q01DX009 (ip), vehicle: Klucel (hydroxypropylcellulose) (HPC)) is 90 % of control; the T/C (dose: 1.56 mg/kg/injection, schedule: Q01DX009 (ip), vehicle: Klucel (hydroxypropylcellulose) (HPC)) is 102 % of control; the T/C (dose: 3.12 mg/kg/injection, schedule: Q01DX009 (ip), vehicle: Klucel (hydroxypropylcellulose) (HPC)) is 96 % of control; the T/C under setting [8] is 86 % of control.
`CC1(O)Nc2nc3c(ncn3C3OC(CO)C(O)C3O)c(=O)n2C1O` (configuration not stated): the T/C is 96 % of control (dose: 12.5 mg/kg/injection, schedule: Q01DX009 (ip), vehicle: water); 103 % of control (dose: 25.0 mg/kg/injection, schedule: Q01DX009 (ip), vehicle: water); 101 % of control (dose: 50.0 mg/kg/injection, schedule: Q01DX009 (ip), vehicle: water); 100 % of control (dose: 100.0 mg/kg/injection, schedule: Q01DX009 (ip), vehicle: water); 97 % of control (dose: 200.0 mg/kg/injection, schedule: Q01DX009 (ip), vehicle: water); 95 % of control (dose: 400.0 mg/kg/injection, schedule: Q01DX009 (ip), vehicle: water).
With `OC(CCN1CCCCC1)(c1ccccc1)C1CCCC1` (configuration not stated), the T/C under setting [8] is 100 % of control; the T/C (dose: 25.0 mg/kg/injection, schedule: Q01DX009 (ip), vehicle: Klucel (hydroxypropylcellulose) (HPC)) is 94 % of control; the T/C under setting [4] was 100 % of control.
Regarding `Oc1cccnc1CN1CCOCC1`, the T/C under setting [6] is 106 % of control, the T/C under setting [7] is 109 % of control and the T/C under setting [9] was 100 % of control.
`CC1(CC(C)(C)C2CCCCC2)OCCO1`: the T/C is 100 % of control (dose: 12.5 mg/kg/injection, schedule: Q01DX009 (ip), vehicle: other); 93 % of control (dose: 25.0 mg/kg/injection, schedule: Q01DX009 (ip), vehicle: other); 90 % of control under setting [2].
For the compound `N#CC(=C1C=CC(=NO)C=C1)c1ccc(Cl)cc1`, the T/C runs as follows: under setting [10], 88 % of control; under setting [11], 95 % of control; under setting [12], 87 % of control; under setting [5], 86 % of control.
Turning to `Cc1cc(C)c(NC(=O)N(CCCl)N=O)cc1C`, the T/C (dose: 23.0 mg/kg/injection, schedule: Q01DX009 (ip), vehicle: saline) was 197 % of control and the T/C (dose: 45.0 mg/kg/injection, schedule: Q01DX009 (ip), vehicle: saline) was 229 % of control.
On to `COC(CCC#N)c1ccc(Cl)cc1` (configuration not stated), for which the T/C under setting [6] is 101 % of control, the T/C under setting [7] is 96 % of control and the T/C under setting [9] is 98 % of control.
In the case of `CCN(CC)CCOCCO`, the T/C is 107 % of control (dose: 25.0 mg/kg/injection, schedule: Q01DX009 (ip), vehicle: suspension in saline); 95 % of control (dose: 50.0 mg/kg/injection, schedule: Q01DX009 (ip), vehicle: suspension in saline); 105 % of control (dose: 100.0 mg/kg/injection, schedule: Q01DX009 (ip), vehicle: suspension in saline); 96 % of control (dose: 200.0 mg/kg/injection, schedule: Q01DX009 (ip), vehicle: suspension in saline).
For `NC(=O)c1cc2c(N)[nH]nc2nc1N`, the T/C is, setting by setting: under setting [13], 106 % of control; under setting [14], 100 % of control; (dose: 25.0 mg/kg/injection, schedule: Q01DX009 (ip), vehicle: saline) 95 % of control.
For the compound `CCN(CC)CCC(=O)c1ccccc1`, the T/C is, setting by setting: (dose: 3.12 mg/kg/injection, schedule: Q01DX009 (ip), vehicle: saline with Tween-80) 114 % of control; under setting [10], 108 % of control; under setting [11], 117 % of control; under setting [12], 107 % of control; under setting [5], 108 % of control; under setting [6], 107 % of control.
For `N=[N+]=CC(=O)OCC(N)C(=O)O` (configuration not stated), the T/C is 100 % of control under setting [1]; 100 % of control (dose: 3.13 mg/kg/injection, schedule: Q01DX009 (ip), vehicle: saline); 102 % of control (dose: 5.0 mg/kg/injection, schedule: Q04DX003 (ip), vehicle: water); 102 % of control under setting [13]; 100 % of control (dose: 10.0 mg/kg/injection, schedule: Q04DX003 (ip), vehicle: other); 105 % of control under setting [14]. Besides, the T/C (dose: 15.0 mg/kg/injection, schedule: Q04DX003 (ip), vehicle: water) was 115 % of control; the T/C (dose: 20.0 mg/kg/injection, schedule: Q04DX003 (ip), vehicle: other) was 100 % of control; the T/C (dose: 375.0 micrograms/kg/injection, schedule: Q01DX009 (ip), vehicle: water) is 118 % of control; the T/C (dose: 750.0 micrograms/kg/injection, schedule: Q01DX009 (ip), vehicle: water) was 107 % of control.
As for `CC(Cc1ccc2c(c1)OCO2)C(C)Cc1ccc2c(c1)OCO2` (configuration not stated), the T/C is 94 % of control (dose: 100.0 mg/kg/injection, schedule: Q01DX009 (ip), vehicle: other); 89 % of control (dose: 200.0 mg/kg/injection, schedule: Q01DX009 (ip), vehicle: other); 89 % of control (dose: 400.0 mg/kg/injection, schedule: Q01DX009 (ip), vehicle: other).

These data come from PubChem BioAssay AID192 (DTP/NCI, 2004).
